According to patent US5831026A, “Process for purifying factor VIII” (Pharmacia & Upjohn AB, priority 1994, dated 1998):

Experiments:
factor VIII = experiment: Activity of factor VIII after addition of complexing agent to eluted solution from SP Sepharose FF, COATEST chromogenic assay; type: biochemical; conditions: for Factor VIII activity (IU/ml) / Factor VIII activity (%): Example 8; for Factor VIII activity (%): 0 h without additive = 100
Protocol: Tests without EDTA present were carried out for comparison.
(§1) A conditioned medium (containing human serum albumin) from a different harvest than the previous Examples, was clarified and buffered with NH4 Ac. […] After elution, various amounts of EDTA were added to the resulting solution. Tests without EDTA present were carried out for comparison. The procoagulant activity of factor VIII was determined after storage at ambient temperature for up to 246 hours, in accordance to the procedure described in Example 5.
as §1, with “28” for “246”
A conditioned medium (containing human serum albumin) from a different harvest than the previous Examples, was clarified and buffered with NH4 Ac. The resulting solution was loaded onto a column containing SP SEPHAROSE® FF. This cation-exchange chromatography step was performed at 10° C. […] After elution, EDTA or 1,10-Phenanthroline were added to the resulting solution.

[1] = system: metal-dependent proteases; experiment: Protease assay with resorufin-labeled casein in harvest solution (conditioned medium); type: biochemical, Chinese Hamster; conditions: for Mean absorbance: 37° C., 2 h preincubation + 17 h, pH 7.5; for Mean absorbance corrected: blank subtracted
Protocol: The method chosen was a protease assay with casein which was resorufin-labeled. By treatment with proteases, resorufin-labeled peptides are released from the casein. The concentration of these resorufin-labeled peptides in the supernatant is a measure of the proteolytic activity present. The test sample was incubated at 37° C. for a period of time which was dependent upon the sample at issue. The absorption wave-length chosen was 574 run throughout the tests. […]
Preincubation of the conditioned medium with or without EDTA was conducted at 37° C. for 2 h. After the addition of substrate, further incubation was carried out for 17 h. The pH in the incubation mixture was 7.5.
Absorbance corrected, refers to the absorption after subtraction of the blank value.
Conditioned medium (containing human serum albumin) was clarified and imidazole subsequently added in an amount ranging from 3.6 mM up to 360 mM.
Conditioned medium (containing human serum albumin) was clarified and histidine subsequently added in an amount ranging from 0.14 mM to 13.6 mM.

[2] = 3 mM EDTA in washing and elution liquid; harvest solution no. 2
Protocol: Conditioned mediums (containing human serum albumin) from two consecutive harvests, were clarified and buffered with NH4 Ac. Each resulting solution, with a pH of 6.8, was loaded onto a column containing SP SEPHAROSE® FF sold by Pharmacia AB of Uppsala, Sweden. This cation-exchange chromatography step was performed at about 8° C. After washing, factor VIII was eluted with a salt buffer containing 0.8M NaCl and 0.1M NH4 Ac. The washing liquid as well as the elution liquid contained 3 mM EDTA in the tests with harvest solution no. 2. Tests without EDTA present was carried out for comparison (harvest solution no. 1). […] The concentration of unbound Ca^2+ -ions was determined by an ion-selective electrode.

[3] = 3 mM EDTA, incubation 4.5 h ambient
[4] = 3 mM EDTA, incubation 7.5 h ambient
[5] = 3 mM EDTA, incubation 24 h ambient

With `O=C(O)CN(CCN(CC(=O)O)CC(=O)O)CC(=O)O` [EDTA, ethylenediamine tetraacetic acid] the “Activity of factor VIII in % of the initial value” (factor VIII; Example 6 (0.4M NaCl eluate), 3.0 mM EDTA, storage 24 h ambient) was 100%, the “Activity of factor VIII in % of the initial value” (factor VIII; Example 6 (0.4M NaCl eluate), 3.0 mM EDTA, storage 48 h ambient) was 96% and the “Activity of factor VIII in % of the initial value” (factor VIII; Example 6 (0.4M NaCl eluate), 3.0 mM EDTA, storage 72 h ambient) was 80%. For the same molecule, the “Activity of factor VIII in % of the initial value” (factor VIII; Example 6 (0.4M NaCl eluate), 3.0 mM EDTA, storage 100 h ambient) was 91%, the “Activity of factor VIII in % of the initial value” (factor VIII; Example 6 (0.4M NaCl eluate), 3.0 mM EDTA, storage 246 h ambient) was 72% and the “Activity of factor VIII in % of the initial value” (factor VIII; Example 7 (0.8M NaCl eluate), 1 mM EDTA, storage 0 h ambient) was 100%. For the same molecule, the “Activity of factor VIII in % of the initial value” (factor VIII; Example 7 (0.8M NaCl eluate), 1 mM EDTA, storage 5 h ambient) was 119%, the “Activity of factor VIII in % of the initial value” (factor VIII; Example 7 (0.8M NaCl eluate), 1 mM EDTA, storage 28 h ambient) was 64% and the “Activity of factor VIII in % of the initial value” (factor VIII; Example 7 (0.8M NaCl eluate), 2 mM EDTA, storage 0 h ambient) was 100%. For the same molecule, the “Activity of factor VIII in % of the initial value” (factor VIII; Example 7 (0.8M NaCl eluate), 2 mM EDTA, storage 5 h ambient) was 120%, the “Activity of factor VIII in % of the initial value” (factor VIII; Example 7 (0.8M NaCl eluate), 2 mM EDTA, storage 28 h ambient) was 100% and the “Activity of factor VIII in % of the initial value” (factor VIII; Example 7 (0.8M NaCl eluate), 3 mM EDTA, storage 0 h ambient) was 100%. For the same molecule, the “Activity of factor VIII in % of the initial value” (factor VIII; Example 7 (0.8M NaCl eluate), 3 mM EDTA, storage 5 h ambient) was 120%, the “Activity of factor VIII in % of the initial value” (factor VIII; Example 7 (0.8M NaCl eluate), 3 mM EDTA, storage 28 h ambient) was 90% and the “Activity of factor VIII in % of the initial value” (factor VIII; Example 7 (0.8M NaCl eluate), 4 mM EDTA, storage 0 h ambient) was 100%. For the same molecule, the “Activity of factor VIII in % of the initial value” (factor VIII; Example 7 (0.8M NaCl eluate), 4 mM EDTA, storage 5 h ambient) was 109%, the “Activity of factor VIII in % of the initial value” (factor VIII; Example 7 (0.8M NaCl eluate), 4 mM EDTA, storage 28 h ambient) was 103% and the “Activity of factor VIII in % of the initial value” (factor VIII; Example 7 (0.8M NaCl eluate), 5 mM EDTA, storage 0 h ambient) was 100%. For the same molecule, the “Activity of factor VIII in % of the initial value” (factor VIII; Example 7 (0.8M NaCl eluate), 5 mM EDTA, storage 5 h ambient) was 116%, the “Activity of factor VIII in % of the initial value” (factor VIII; Example 7 (0.8M NaCl eluate), 5 mM EDTA, storage 28 h ambient) was 91% and the “Factor VIII activity (IU/ml)” value (factor VIII; [3]) was 813 IU/ml. For the same molecule, the “Factor VIII activity (%)” value (factor VIII; [3]) was 92%, the “Factor VIII activity (IU/ml)” value (factor VIII; [4]) was 862 IU/ml and the “Factor VIII activity (%)” value (factor VIII; [4]) was 97%. For the same molecule, the “Factor VIII activity (IU/ml)” value (factor VIII; [5]) was 763 IU/ml, the “Factor VIII activity (%)” value (factor VIII; [5]) was 86% and the “Protease activity (%)” value ([1]; 0.23 mM EDTA) was 43%. For the same molecule, the Mean absorbance ([1]; 0.23 mM EDTA) was 1835, the Mean absorbance corrected ([1]; 0.23 mM EDTA) was 865 and the “Protease activity (%)” value ([1]; 1.2 mM EDTA) was 8%. For the same molecule, the Mean absorbance ([1]; 1.2 mM EDTA) was 1141, the Mean absorbance corrected ([1]; 1.2 mM EDTA) was 171 and the “Protease activity (%)” value ([1]; 2.3 mM EDTA) was 5%. For the same molecule, the Mean absorbance ([1]; 2.3 mM EDTA) was 1069, the Mean absorbance corrected ([1]; 2.3 mM EDTA) was 99 and the “Protease activity (%)” value ([1]; 11.5 mM EDTA) was 1%. The Mean absorbance ([1]; 11.5 mM EDTA) was 994, the Mean absorbance corrected ([1]; 11.5 mM EDTA) was 24 and the “Protease activity (%)” value ([1]; 23 mM EDTA) was -2%. For the same molecule, the Mean absorbance ([1]; 23 mM EDTA) was 933, the Mean absorbance corrected ([1]; 23 mM EDTA) was -37 and the “Unbound Ca^2+ ions” value [2] was 25 mM.
